For this experiment, the target named is Human Factor D (Homo sapiens (Human), UniProt P00746). The experiment can be described thus: Human Factor D Assay. The format is biochemical. The method in brief: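 Thioester substrate Z-L-Lys-SBz (100 μM) with Ellman's reagent DTNB (100 μM) reports activity of 80 nM human serum-derived enzyme, kinetically at 405 nm over 30 min. Compound preincubated 5 min, room temperature, pH 7.5 Tris/1 M NaCl; IC50 by nonlinear fit of rates.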

Where [1] appears, read: Factor D inhibition, assay of Example 10, read-out: IC5 (Stars).
Where [2] appears, read: Table 8, Factor D 80 nM, substrate Z-L-Lys-SBz, read-out: IC50.

Read-outs that look alike come from different tables or passages of the source.

Chain of Human Factor D (P00746 26-253): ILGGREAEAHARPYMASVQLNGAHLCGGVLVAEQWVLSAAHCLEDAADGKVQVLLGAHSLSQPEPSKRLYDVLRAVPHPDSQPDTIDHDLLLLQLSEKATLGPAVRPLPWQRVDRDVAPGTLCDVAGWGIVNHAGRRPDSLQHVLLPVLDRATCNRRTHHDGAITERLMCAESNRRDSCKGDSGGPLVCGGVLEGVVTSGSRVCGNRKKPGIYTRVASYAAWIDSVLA

Take `CC(=O)c1nn(CC(=O)N2[C@H](C(=O)Nc3nc(Br)ccc3C)C[C@@]3(COC(F)F)C[C@@H]23)c2cnc(-c3cnc(C)nc3)cc12` [Compound 384, (1R,3S,5S)-2-(2-(3-Acetyl-5-(2-methylpyrimidin-5-yl)-1H-pyrazolo[3,4-c]pyridin-1-yl)acetyl)-N-(6-bromo-3-methylpyridin-2-yl)-5-((difluoromethoxy)methyl)-2-azabicyclo[3.1.0]hexane-3-carboxamide]: the IC50 under setting [1] was less than 1000 nM.

With `CC(=O)c1nn(CC(=O)N2[C@H](C(=O)Nc3nc(Br)ccc3Cl)C[C@@]3(C)C[C@@H]23)c2ccc(-c3cnc(C)nc3)cc12` [Compound 386, (1R,3S,5R)-2-(2-(3-acetyl-5-(2-methylpyrimidin-5-yl)-1H-indazol-1-yl)acetyl)-N-(6-bromo-3-chloropyridin-2-yl)-5-methyl-2-azabicyclo[3.1.0]hexane-3-carboxamide], the IC50 under setting [1] was less than 1000 nM.

On to `CC(=O)c1nn(CC(=O)N2C[C@H]3C[C@H]3[C@H]2C(=O)Nc2nc(Br)ccc2C)c2c(C(C)C)nc(-c3cnc(C)nc3)cc12` [Compound 388, (1R,25,5S)-3-(2-(3-acetyl-7-isopropyl-5-(2-methylpyrimidin-5-yl)-1H-pyrazolo[3,4-c]pyridin-1-yl)acetyl)-N-(6-bromo-3-methylpyridin-2-yl)-3-azabicyclo[3.1.0]hexane-2-carboxamide], for which the IC50 under setting [1] was less than 1000 nM.

`Cc1ncc(-c2ccc3c(c2)c(C(=O)c2ncc[nH]2)nn3CC(=O)N2[C@H](C(=O)Nc3nc(Br)ccc3C)C[C@@]3(C)C[C@@H]23)cn1` [Compound 389, (1R,3S,5R)-2-(2-(3-(1H-Imidazole-2-carbonyl)-5-(2-methylpyrimidin-5-yl)-1H-indazol-1-yl)acetyl)-N-(6-bromo-3-methylpyridin-2-yl)-5-methyl-2-azabicyclo[3.1.0]hexane-3-carboxamide]: the IC50 under setting [1] is greater than 10000 nM.

Consider `COC(=O)CCCCCCCCCCCCCCCCC(=O)N[C@@H](CCC(=O)NCCOCCOCC(=O)NCCOCCOCC(=O)NC[C@@]12C[C@@H](C(=O)Nc3nc(Br)ccc3C)N(C(=O)Cn3nc(C(C)=O)c4cc(-c5cnc(C)nc5)cc(C)c43)[C@@H]1C2)C(=O)OC` [Compound 391, Methyl (S)-1-((1R,3S,5R)-2-(2-(3-acetyl-7-methyl-5-(2-methylpyrimidin-5-yl)-1H-indazol-1-yl)acetyl)-3-((6-bromo-3-methylpyridin-2-yl)carbamoyl)-2-azabicyclo[3.1.0]hexan-5-yl)-24-(methoxycarbonyl)-3,12,21,26-tetraoxo-5,8,14,17-tetraoxa-2,11,20,25-tetraazatritetracontan-43-oate], for which the IC50 under setting [2] is less than 1000 nM.

Take `CC(=O)c1nn(CC(=O)N2[C@H](C(=O)Nc3nc(Br)ccc3C)C[C@@]3(CNC(=O)COCCOCCNC(=O)COCCOCCNC(=O)CC[C@H](NC(=O)CCCCCCCCCCCCCCCCC(=O)O)C(=O)O)C[C@@H]23)c2c(C)cc(-c3cnc(C)nc3)cc12` [Compound 392, (S)-1-((1R,3S,5R)-2-(2-(3-Acetyl-7-methyl-5-(2-methylpyrimidin-5-yl)-1H-indazol-1-yl)acetyl)-3-((6-bromo-3-methylpyridin-2-yl)carbamoyl)-2-azabicyclo[3.1.0]hexan-5-yl)-24-carboxy-3,12,21,26-tetraoxo-5,8,14,17-tetraoxa-2,11,20,25-tetraazatritetracontan-43-oic acid]: the IC50 under setting [2] was less than 1000 nM.

For `CC(=O)c1nn(CC(=O)N2C[C@H]3C[C@H]3[C@H]2C(=O)Nc2nc(Br)c(F)cc2C)c2c(C)nc(-c3cnc(C)nc3)cc12` [Compound 393, (1R,2S,5S)-3-(2-(3-acetyl-7-methyl-5-(2-methylpyrimidin-5-yl)-1H-pyrazolo[3,4-c]pyridin-1-yl)acetyl)-N-(6-bromo-5-fluoro-3-methylpyridin-2-yl)-3-azabicyclo[3.1.0]hexane-2-carboxamide], the IC50 under setting [1] was less than 1000 nM.

Take `COc1cc2c(cc1-c1cnc(C)nc1)c(C(C)=O)nn2CC(=O)N1[C@H](C(=O)Nc2nc(Br)ccc2C)C[C@@]2(C)C[C@@H]12` [Compound 394, (1R,3S,5R)-2-(2-(3-acetyl-6-methoxy-5-(2-methylpyrimidin-5-yl)-1H-indazol-1-yl)acetyl)-N-(6-bromo-3-methylpyridin-2-yl)-5-methyl-2-azabicyclo[3.1.0]hexane-3-carboxamide]: the IC50 under setting [1] was less than 1000 nM.

Take `COC(=O)c1cc2c(cc1-c1cnc(C)nc1)c(C(C)=O)nn2CC(=O)N1[C@H](C(=O)Nc2nc(Br)ccc2C)C[C@@]2(C)C[C@@H]12` [Compound 395, methyl 3-acetyl-1-(2-((1R,3S,5R)-3-((6-bromo-3-methylpyridin-2-yl)carbamoyl)-5-methyl-2-azabicyclo[3.1.0]hexan-2-yl)-2-oxoethyl)-5-(2-methylpyrimidin-5-yl)-1H-indazole-6-carboxylate]: under setting [1], the IC50 was less than 1000 nM.

As for `CC(=O)c1nn(CC(=O)N(C(=O)[C@@H]2C[C@@]3(C)C[C@H]3N2)c2nc(Br)ccc2CN(CCC(F)(F)F)CCC(F)(F)F)c2cnc(-c3cnc(C)nc3)cc12` [Compound 396, (1R,3S,5R)-2-(2-(3-acetyl-5-(2-methylpyrimidin-5-yl)-1H-pyrazolo[3,4-c]pyridin-1-yl)acetyl)-N-(3-((bis(3,3,3-trifluoropropyl)amino)methyl)-6-bromopyridin-2-yl)-5-methyl-2-azabicyclo[3.1.0]hexane-3-carboxamide], the IC50 under setting [1] is less than 1000 nM.

On to `CC(=O)c1nn(CC(=O)N2[C@H](C(=O)Nc3nc(Br)ccc3Cc3nn[nH]n3)C[C@@]3(C)C[C@@H]23)c2cnc(-c3cnc(C)nc3)cc12` [Compound 397, (1R, 3S, 5R)—N-(3-((2H-Tetrazol-5-yl)methyl)-6-bromopyridin-2-yl)-2-(2-(3-acetyl-5-(2-methylpyrimidin-5-yl)-1H-pyrazolo[3,4-c]pyridin-1-yl)acetyl)-5-methyl-2-azabicyclo[3.1.0]hexane-3-carboxamide], for which, under setting [1], the IC50 was less than 1000 nM.

Take `CC(=O)c1nn(CC(=O)N2[C@H](C(=O)Nc3nc(Br)ccc3CN(C)C)C[C@@]3(C)C[C@@H]23)c2cc(Cl)c(-c3cnc(C)nc3)cc12` [Compound 399, (1R,3S,5R)-2-(2-(3-acetyl-6-chloro-5-(2-methylpyrimidin-5-yl)-1H-indazol-1-yl)acetyl)-N-(6-bromo-3-((dimethylamino)methyl)pyridin-2-yl)-5-methyl-2-azabicyclo[3.1.0]hexane-3-carboxamide]: under setting [1], the IC50 was less than 1000 nM.

`CC(=O)c1nn(CC(=O)N2[C@H](C(=O)Nc3nc(Br)ccc3CCCN3CCOCC3)C[C@@]3(C)C[C@@H]23)c2cnc(-c3cnc(C)nc3)cc12` [Compound 400, (1R,3S,5R)-2-(2-(3-Acetyl-5-(2-methylpyrimidin-5-yl)-1H-pyrazolo[3,4-c]pyridin-1-yl)acetyl)-N-(6-bromo-3-(3-morpholinopropyl)pyridin-2-yl)-5-methyl-2-azabicyclo[3.1.0]hexane-3-carboxamide]: the IC50 under setting [1] was less than 1000 nM.

`Cc1ncc(-c2cc3c(C(C)O)nn(CC(=O)N4[C@H](C(=O)Nc5nc(Br)ccc5C)C[C@@]5(C)C[C@@H]45)c3cn2)cn1` (stereo partly drawn) [Compound 402, (1R,3S,5R)-N-(6-bromo-3-methylpyridin-2-yl)-2-(2-(3-(1-hydroxyethyl)-5-(2-methylpyrimidin-5-yl)-1H-pyrazolo[3,4-c]pyridin-1-yl)acetyl)-5-methyl-2-azabicyclo[3.1.0]hexane-3-carboxamide]: the IC50 under setting [1] was 1000 to 10000 nM.

As to `COC(=O)CCCCCCCCCCCCCCCCC(=O)N[C@@H](CCC(=O)NCCOCCOCC(=O)NCCOCCOCC(=O)NCc1ncc(-c2cc(C)c3c(c2)c(C(C)=O)nn3CC(=O)N2[C@H](C(=O)Nc3nc(Br)ccc3C)C[C@@]3(C)C[C@@H]23)cn1)C(=O)O` [Compound 403], under setting [2], the IC50 was less than 1000 nM.

Take `CC(=O)c1nn(CC(=O)N2[C@H](C(=O)Nc3nc(Br)ccc3C)C[C@@]3(C)C[C@@H]23)c2c(C)cc(-c3cnc(CNC(=O)COCCOCCNC(=O)COCCOCCNC(=O)CC[C@H](NC(=O)CCCCCCCCCCCCCCCCC(=O)O)C(=O)O)nc3)cc12` [Compound 404]: the IC50 under setting [2] is less than 1000 nM.

Turning to `COC(=O)CCCCCCCCCCCCCCCCC(=O)N[C@@H](CCC(=O)NCCOCCOCC(=O)NCCOCCOCC(=O)NCc1ncc(-c2cc3c(C(C)=O)nn(CC(=O)N4[C@H](C(=O)Nc5nc(Br)ccc5C)C[C@@]5(C)C[C@@H]45)c3cn2)cn1)C(=O)OC` [Compound 405], the IC50 under setting [2] is less than 1000 nM.

Consider `COC(=O)CCCCCCCCCCCCCCCCC(=O)N[C@@H](CCC(=O)NCCOCCOCC(=O)NCCOCCOCC(=O)NC[C@@]12C[C@@H](C(=O)Nc3nc(Br)ccc3C)N(C(=O)Cn3nc(C(C)=O)c4cc(-c5cnc(C)nc5)ncc43)[C@@H]1C2)C(=O)OC` [Compound 406], for which the IC50 under setting [2] was less than 1000 nM.

Take `Cc1ncc(-c2cc(C)c3c(c2)c(C#N)nn3CC(=O)N2[C@H](C(=O)Nc3nc(Br)ccc3C)C[C@@]3(C)C[C@@H]23)cn1` [Compound 407, (1R,3S,5R)-N-(6-bromo-3-methylpyridin-2-yl)-2-(2-(3-cyano-7-methyl-5-(2-methylpyrimidin-5-yl)-1H-indazol-1-yl)acetyl)-5-methyl-2-azabicyclo[3.1.0]hexane-3-carboxamide]: the IC50 under setting [1] is less than 1000 nM.

As for `CC(=O)c1nn(CC(=O)N2[C@H](C(=O)Nc3nc(Br)ccc3CN(C)C)C[C@@]3(C)C[C@@H]23)c2c(Cl)cc(-c3cnc(C)nc3)cc12` [Compound 408, (1R,3S,5R)-2-(2-(3-acetyl-7-chloro-5-(2-methylpyrimidin-5-yl)-1H-indazol-1-yl)acetyl)-N-(6-bromo-3-((dimethylamino)methyl)pyridin-2-yl)-5-methyl-2-azabicyclo[3.1.0]hexane-3-carboxamide], the IC50 under setting [1] was less than 1000 nM.

Turning to `CC(=O)c1nn(CC(=O)N2[C@H](C(=O)Nc3nc(Br)ccc3C)C[C@@]3(Cc4nc(C)no4)C[C@@H]23)c2c(CF)cc(-c3cnc(C)nc3)cc12` [Compound 409, (1R,3S,5R)-2-(2-(3-acetyl-7-(fluoromethyl)-5-(2-methylpyrimidin-5-yl)-1H-indazol-1-yl)acetyl)-N-(6-bromo-3-methylpyridin-2-yl)-5-((3-methyl-1,2,4-oxadiazol-5-yl)methyl)-2-azabicyclo[3.1.0]hexane-3-carboxamide], under setting [1], the IC50 was less than 1000 nM.

The record behind these values is patent US11084800B2 (Achillion Pharmaceuticals, Inc., priority 2017, dated 2021).
